Laboratory results as given in ChEMBL document CHEMBL1201862, “PubChem BioAssay data set” (2004).
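Each compound was tested at five concentrations against cells in 96-well plates for 48 hours. At the GI50, growth is halved.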 Calls of active or inactive are those of the source. No stated cut-off is given here; in the data, active = GI50 up to about 1.1 µM and inactive = higher.

How the values were obtained:
Assay in all cases: DTP human tumour cell line panel, 48 h
HCC 2998 = system: HCC 2998
A549 = system: A549
NCI-H226 = system: NCI-H226
MCF7 = system: MCF7
LOX IMVI = system: LOX IMVI
NCI-H522 = system: NCI-H522
U-251 = system: U-251
SK-MEL-2 = system: SK-MEL-2
MDA-N = system: MDA-N
MOLT-4 = system: MOLT-4
CCRF-CEM = system: CCRF-CEM
MDA-MB-231 = system: MDA-MB-231
ACHN = system: ACHN
HCT-116 = system: HCT-116
SK-MEL-28 = system: SK-MEL-28
OVCAR-8 = system: OVCAR-8
SN12C = system: SN12C
Malme-3M = system: Malme-3M
RXF 393 = system: RXF 393
SNB-75 = system: SNB-75

COP(=O)(O)C(N)Cc1c[nH]c2ccccc12 (centres undefined)
GI50 (HCC 2998): > 100 µM (inactive)
GI50 (A549): > 100 µM (inactive)
GI50 (NCI-H226): > 100 µM (inactive)
GI50 (MCF7): > 100 µM (inactive)
GI50 (LOX IMVI): > 100 µM (inactive)
GI50 (NCI-H522): > 100 µM (inactive)
GI50 (U-251): > 100 µM (inactive)
GI50 (SK-MEL-2): > 100 µM (inactive)
GI50 (MDA-N): > 100 µM (inactive)
GI50 (MOLT-4): > 100 µM (inactive)
GI50 (CCRF-CEM): > 100 µM (inactive)
GI50 (MDA-MB-231): > 100 µM (inactive)
GI50 (ACHN): > 100 µM (inactive)
GI50 (HCT-116): > 100 µM (inactive)
GI50 (SK-MEL-28): > 100 µM (inactive)
GI50 (OVCAR-8): > 100 µM (inactive)
GI50 (SN12C): > 100 µM (inactive)

CO/C=C(/C(=O)OC)c1ccccc1[C@H]1C[C@@H]1c1ccc(OC)cc1
GI50 (HCC 2998): 17.2 µM (inactive)
GI50 (A549): 20.8 µM (inactive)
GI50 (NCI-H226): 30.2 µM (inactive)
GI50 (MCF7): 32.1 µM (inactive)
GI50 (NCI-H522): 7.93 µM (inactive)
GI50 (U-251): 30.8 µM (inactive)
GI50 (SK-MEL-2): 13.2 µM (inactive)
GI50 (MDA-N): 12.9 µM (inactive)
GI50 (MOLT-4): 17.1 µM (inactive)
GI50 (CCRF-CEM): 25.4 µM (inactive)
GI50 (MDA-MB-231): 25.5 µM (inactive)
GI50 (Malme-3M): 15.6 µM (inactive)
GI50 (RXF 393): 49.9 µM (inactive)
GI50 (ACHN): 22 µM (inactive)
GI50 (HCT-116): 16.3 µM (inactive)
GI50 (SK-MEL-28): 18.1 µM (inactive)
GI50 (OVCAR-8): 28.6 µM (inactive)
GI50 (SN12C): 32.1 µM (inactive)

CC(=O)C1(c2ccccc2)CCCN(C)CC1 (centres undefined)
GI50 (HCC 2998): > 100 µM (inactive)
GI50 (NCI-H226): > 100 µM (inactive)
GI50 (MCF7): > 100 µM (inactive)
GI50 (LOX IMVI): > 100 µM (inactive)
GI50 (U-251): > 100 µM (inactive)
GI50 (SK-MEL-2): > 100 µM (inactive)
GI50 (MDA-N): > 10 µM (inactive)
GI50 (MOLT-4): > 100 µM (inactive)
GI50 (CCRF-CEM): > 100 µM (inactive)
GI50 (MDA-MB-231): > 100 µM (inactive)
GI50 (Malme-3M): > 100 µM (inactive)
GI50 (HCT-116): > 100 µM (inactive)
GI50 (SK-MEL-28): > 100 µM (inactive)
GI50 (SNB-75): > 100 µM (inactive)
GI50 (OVCAR-8): > 100 µM (inactive)

S=C1N(c2ccc(Cl)cc2)C2=C(/N=N/c3ccccc3)C(=Nc3ccccc3S2)N1c1ccccn1
GI50 (HCC 2998): 17.4 µM (inactive)
GI50 (A549): 13.6 µM (inactive)
GI50 (MCF7): 0.167 µM (active)
GI50 (LOX IMVI): 10.4 µM (inactive)
GI50 (U-251): 11 µM (inactive)
GI50 (MDA-N): 15.4 µM (inactive)
GI50 (MOLT-4): 13.9 µM (inactive)
GI50 (CCRF-CEM): 5.36 µM (inactive)
GI50 (MDA-MB-231): 12.8 µM (inactive)
GI50 (Malme-3M): 2.78 µM (inactive)
GI50 (ACHN): 14.5 µM (inactive)
GI50 (HCT-116): 14.1 µM (inactive)
GI50 (SK-MEL-28): 15.4 µM (inactive)
GI50 (SNB-75): 19 µM (inactive)
GI50 (OVCAR-8): 14.5 µM (inactive)
GI50 (SN12C): 12.5 µM (inactive)

CC1(C)[C@@H](Cn2nnc3c(N)ncnc32)CC[C@@]1(C)CO
GI50 (HCC 2998): 12.6 µM (inactive)
GI50 (A549): > 100 µM (inactive)
GI50 (NCI-H226): > 100 µM (inactive)
GI50 (MCF7): > 100 µM (inactive)
GI50 (LOX IMVI): > 100 µM (inactive)
GI50 (U-251): > 100 µM (inactive)
GI50 (SK-MEL-2): > 100 µM (inactive)
GI50 (MDA-N): > 100 µM (inactive)
GI50 (MOLT-4): < 0.01 µM (active)
GI50 (CCRF-CEM): > 100 µM (inactive)
GI50 (MDA-MB-231): > 100 µM (inactive)
GI50 (RXF 393): > 100 µM (inactive)
GI50 (ACHN): > 100 µM (inactive)
GI50 (HCT-116): > 100 µM (inactive)
GI50 (SK-MEL-28): > 100 µM (inactive)
GI50 (SNB-75): > 100 µM (inactive)
GI50 (SN12C): > 100 µM (inactive)

O=C(/C=C/c1ccc2c(c1)OCO2)Cc1nc2ccccc2[nH]c1=O
GI50 (HCC 2998): 26.5 µM (inactive)
GI50 (A549): 23.4 µM (inactive)
GI50 (MCF7): 33.9 µM (inactive)
GI50 (LOX IMVI): 3.52 µM (inactive)
GI50 (NCI-H522): > 100 µM (inactive)
GI50 (U-251): 16.8 µM (inactive)
GI50 (SK-MEL-2): 22 µM (inactive)
GI50 (MDA-N): 26.6 µM (inactive)
GI50 (MOLT-4): 38.9 µM (inactive)
GI50 (CCRF-CEM): 35.8 µM (inactive)
GI50 (MDA-MB-231): 20.2 µM (inactive)
GI50 (Malme-3M): 18.3 µM (inactive)
GI50 (RXF 393): 17.9 µM (inactive)
GI50 (ACHN): 13.6 µM (inactive)
GI50 (HCT-116): 22.5 µM (inactive)
GI50 (SK-MEL-28): 16.4 µM (inactive)
GI50 (OVCAR-8): 28.5 µM (inactive)
GI50 (SN12C): 24.1 µM (inactive)

C=C1C(=O)O[C@H]2C(=O)[C@H](C)CCC[C@@](C)(O)/C=C\C[C@@]3(C)O[C@@H]3C[C@@H]12
GI50 (A549): 19 µM (inactive)
GI50 (NCI-H226): 82.2 µM (inactive)
GI50 (MCF7): 18.7 µM (inactive)
GI50 (LOX IMVI): 15.8 µM (inactive)
GI50 (NCI-H522): 2.88 µM (inactive)
GI50 (U-251): 18.3 µM (inactive)
GI50 (SK-MEL-2): 19.5 µM (inactive)
GI50 (MDA-N): 17.9 µM (inactive)
GI50 (MOLT-4): < 0.01 µM (active)
GI50 (CCRF-CEM): 2.67 µM (inactive)
GI50 (MDA-MB-231): 21.7 µM (inactive)
GI50 (ACHN): 8.02 µM (inactive)
GI50 (HCT-116): 7.29 µM (inactive)
GI50 (OVCAR-8): 19.9 µM (inactive)
GI50 (SN12C): 17.1 µM (inactive)

Cc1sc2nc(-c3cccc([N+](=O)[O-])c3)c(/C=N/N=C(N)N)n2c1C
GI50 (HCC 2998): 1.32 µM (inactive)
GI50 (A549): 1.66 µM (inactive)
GI50 (NCI-H226): 1.82 µM (inactive)
GI50 (MCF7): 1.84 µM (inactive)
GI50 (LOX IMVI): 1.77 µM (inactive)
GI50 (NCI-H522): 1.77 µM (inactive)
GI50 (U-251): 1.7 µM (inactive)
GI50 (SK-MEL-2): 1.71 µM (inactive)
GI50 (MDA-N): 1.77 µM (inactive)
GI50 (MOLT-4): 1.9 µM (inactive)
GI50 (CCRF-CEM): 1.74 µM (inactive)
GI50 (MDA-MB-231): 1.75 µM (inactive)
GI50 (Malme-3M): 2.08 µM (inactive)
GI50 (RXF 393): 1.66 µM (inactive)
GI50 (ACHN): 1.71 µM (inactive)
GI50 (SK-MEL-28): 1.67 µM (inactive)
GI50 (OVCAR-8): 1.84 µM (inactive)
GI50 (SN12C): 1.92 µM (inactive)
